Bridge positions count the residues as written; N and C are the ends. Square brackets hold non-standard residues; d marks the D form. Peptide text beside a SMILES is read from it. NMeT = CN[C@H](C(=O)O)[C@@H](C)O
Columns and labels:
[1] = target: T1, hSSTR-1 (Homo sapiens, UniProt P30872); experiment: Radioligand binding assay, cloned human somatostatin receptor type 1; conditions: CHO-K1 cell membranes, displacement of [125I]Tyr11-SRIF; mean ± SEM, single values = one experiment; read-out: Kd ± SEM hsst1
T1 construct: each containing the entire coding region of the full-length receptors; expressed in transfected cells
Description: (§1) Functional Expression of the Cloned Human Somatostatin Receptors. The genomic clones containing the human somatostatin receptors (hSSTR-1 to hSSTR-5) (Yamada, Y., et al. al., Proc. Natl. Acad. Sci. USA. 1992, 89, 251-255; Yasuda, K., et al., J. Biol. Chem. 1992, 267, 20422-20428; Yamada, Y., et al., Mol. Pharmacol. 1992, 42, 2136-2142; Rohrer, L., et al., Proc. Natl. Acad. Sci. USA. 1993, 90, 4196-4200.) were kindly provided by Dr. Graeme I. Bell of the University of Chicago. The hSSTR-1, hSSTR-2, hSSTR-3, hSSTR-4 and hSSTR-5 cDNAs were isolated as a 1.5-kb PstI-XmnI fragment, 1.7-kb BamHI-HindIII fragment, 2.0-kb NcoI-HindIII fragment, 1.4-kb NheI-NdeI fragment, and a 1.2-kb HindIII-XbaI fragment, respectively, each containing the entire coding region of the full-length receptors. These fragments were independently subcloned into the corresponding restriction endonuclease sites in the mammalian expression vector pCMV5, downstream from the human cytomegalovirus (CMV) promoter, to produce the expression plasmids pCMV5/hSSTR-1, pCMV5/hSSTR-2, pCMV5/hSSTR-3, pCMV5/hSSTR-4 and pCMV5/hSSTR-5. For transfection into CHO-K1 cells, a plasmid, pRSV-neo (American Type Culture Collection, Rockville, Md.), carrying the neomycin mammalian cell selectable marker was added.
(§2) Receptor Expression and Transfection. Transfections were performed by the calcium phosphate method. CHO-K1 cells were maintained in α-minimum essential medium (α-MEM; Gibco) supplemented with 10% fetal calf serum and transfected with each of the expression plasmids using calcium phosphate precipitation. Clones that had inherited the expression plasmid were selected in α-MEM supplemented with 500 μg mL^−1 of geneticin (G418; Gibco). Independent CHO-K1 clones were picked by glass-ring cloning and expanded in culture in the selective media. Membranes were prepared from the isolated clones and hSSTR expression was initially assessed for binding with [^125I]Tyr^11-SRIF and [^125I]MK-678 (for SSTR-2).
(§3) Radioligand Binding Assays. Cell membranes of the 5 cells types were obtained from homogenates (Polytron setting 6, 15 sec) of the corresponding CHO-K1 cells, in ice-cold Tris-HCl (50 mM) and centrifuged (39000 g, 10 min×2), with an intermediate resuspension in fresh buffer. The final pellets were resuspended in Tris-HCl (10 mM) for assay. Aliquots of the membranes were incubated (30 min at 37° C.) with 0.05 nM [^125I]Tyr^11-SRIF (types 1, 3, 4, 5) or [^125I]MK-678 (type 2) in […] (pH 7.4) containing BSA (10 mg mL^−1); MgCl2 (5 mM), Trasylol (200 kIU mL^−1), bacitracin (0.02 mg mL^−1), and phenylmethanesulfonyl fluoride (0.02 mg mL^−1). The final assay volume was 0.3 mL and incubations were terminated by rapid filtration through GF/C filters pre-soaked in 0.3% poly(ethylenimine) using a Brandel rapid filtration module. Each tube and filter was then washed with aliquots of cold buffer (3×5 mL).
(§4) Specific binding is defined as the total radioligand bound minus that bound in the presence of 1.0 μM SRIF. The following total radioligand binding and non-specific binding (nsb) values were typically obtained with these assay systems: hSSTR-1, 7000 cpm total versus 3500 cpm nsb; hSSTR-2, 9000 cpm total versus 1000 cpm nsb; hSSTR-3, 8000 cpm total versus 1000 cpm nsb; hSSTR-4, 6000 cpm total versus 3500 cpm nsb; and hSSTR-5, 7500 cpm total versus 3500 cpm nsb. The binding affinities are expressed as Ki values ±SEM (nM) for each of the five receptor subtypes. Ki values derived for representative compounds of the instant invention are detailed in Table 2.
(§5) The binding affinities (Kd, nM) of all SRIF analogues were determined using their concentration-dependent displacement of ^125I-radiolabeled peptide ligands from membranes isolated from CHO cells transfected with the corresponding human somatostatin receptor.

[2] = target: T2, hSSTR-2 (Homo sapiens, UniProt P30874); experiment: Radioligand binding assay, cloned human somatostatin receptor type 2; conditions: CHO-K1 cell membranes, displacement of [125I]MK-678; mean ± SEM, single values = one experiment; read-out: Kd ± SEM hsst2
T2 construct: each containing the entire coding region of the full-length receptors; expressed in transfected cells
Description: as §1, §2, §3, §4, §5

[3] = target: T3, hSSTR-4 (Homo sapiens, UniProt P31391); experiment: Radioligand binding assay, cloned human somatostatin receptor type 4; conditions: CHO-K1 cell membranes, displacement of [125I]Tyr11-SRIF; mean ± SEM, single values = one experiment; read-out: Kd ± SEM hsst4
T3 construct: each containing the entire coding region of the full-length receptors; expressed in transfected cells
Description: as §1, §2, §3, §4, §5

[4] = target: T4, hSSTR-5 (Homo sapiens, UniProt P35346); experiment: Radioligand binding assay, cloned human somatostatin receptor type 5; conditions: CHO-K1 cell membranes, displacement of [125I]Tyr11-SRIF; mean ± SEM, single values = one experiment; read-out: Kd ± SEM hsst5
T4 construct: each containing the entire coding region of the full-length receptors; expressed in transfected cells
Description: as §1, §2, §3, §4, §5

[5] = tested on: Culture Rat Pituitary Cells; assay type: cell-based; conditions: inhibition of GH release, dispersed rat anterior pituitary cells, GHRH(1-29)NH2 1 nM, 3 h at 37° C.; mean ± SEM of (n) dose response curves; read-out: Agonist IC50 ± SEM (n)
Experimental: SRIF Analogue Inhibition of GH Release. Anterior pituitaries from adult male rats were collected and dispersed by a previously described trypsin/DNase method. […] The cells were randomly plated at a density of approximately 200,000 cells/well (Costar cluster 24; Rochester Scientific Co., Rochester, N.Y.). […] In preparation for a hormone challenge, the cells were washed with medium 199 (Gibco, 3×1 mL). Each dose of a compound of this invention was tested in triplicate wells in a total volume of 1 mL medium 199 containing 1% BSA (fraction V; Sigma Chemical Co.). All wells contained GHRH(1-29)NH2 (1 nM). After incubation in an air/carbon dioxide atmosphere (95/5%, 3 h at 37° C.), the medium was removed and stored at −20° C. until assayed for hormone content. Growth hormone in media was measured by a standard double antibody RIA using components generously supplied by Dr. A. F. Parlow at the National Hormone and Pituitary Program (NHHP) Torrance, Calif. Agonist IC50's were calculated using Sigmaplot (Jandel Scientific, San Rafael, Calif.). Values are expressed as the mean IC50 (nM)±SEM from (n) separate dose-response curves.

[6] = target: T5, hSSTR-3 (Homo sapiens, UniProt P32745); experiment: Radioligand binding assay, cloned human somatostatin receptor type 3; conditions: CHO-K1 cell membranes, displacement of [125I]Tyr11-SRIF; mean ± SEM, single values = one experiment; read-out: Kd ± SEM hsst3
T5 construct: each containing the entire coding region of the full-length receptors; expressed in transfected cells
Description: as §1, §2, §3, §4, §5

T1 sequence (P30872 whole entry): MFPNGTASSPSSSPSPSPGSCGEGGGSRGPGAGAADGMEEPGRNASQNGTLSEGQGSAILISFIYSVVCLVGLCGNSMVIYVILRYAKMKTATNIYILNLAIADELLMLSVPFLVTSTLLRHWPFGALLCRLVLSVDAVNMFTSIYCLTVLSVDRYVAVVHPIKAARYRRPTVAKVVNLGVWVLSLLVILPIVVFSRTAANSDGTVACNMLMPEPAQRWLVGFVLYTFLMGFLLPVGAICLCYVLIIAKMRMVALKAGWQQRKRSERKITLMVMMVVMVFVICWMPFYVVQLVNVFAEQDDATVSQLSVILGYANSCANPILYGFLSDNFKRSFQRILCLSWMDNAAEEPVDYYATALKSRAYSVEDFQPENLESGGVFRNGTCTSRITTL
T5 sequence (P32745 whole entry): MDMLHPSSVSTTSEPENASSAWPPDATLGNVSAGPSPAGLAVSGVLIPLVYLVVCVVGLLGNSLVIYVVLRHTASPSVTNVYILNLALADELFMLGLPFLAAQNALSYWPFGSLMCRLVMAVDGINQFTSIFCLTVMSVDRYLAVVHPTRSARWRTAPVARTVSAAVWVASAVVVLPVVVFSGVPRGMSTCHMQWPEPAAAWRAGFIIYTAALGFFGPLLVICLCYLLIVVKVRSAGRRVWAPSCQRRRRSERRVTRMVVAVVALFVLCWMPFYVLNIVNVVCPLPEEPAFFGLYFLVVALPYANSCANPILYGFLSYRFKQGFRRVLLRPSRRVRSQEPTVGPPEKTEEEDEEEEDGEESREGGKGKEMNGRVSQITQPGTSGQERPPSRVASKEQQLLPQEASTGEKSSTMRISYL
T2 sequence (P30874 whole entry): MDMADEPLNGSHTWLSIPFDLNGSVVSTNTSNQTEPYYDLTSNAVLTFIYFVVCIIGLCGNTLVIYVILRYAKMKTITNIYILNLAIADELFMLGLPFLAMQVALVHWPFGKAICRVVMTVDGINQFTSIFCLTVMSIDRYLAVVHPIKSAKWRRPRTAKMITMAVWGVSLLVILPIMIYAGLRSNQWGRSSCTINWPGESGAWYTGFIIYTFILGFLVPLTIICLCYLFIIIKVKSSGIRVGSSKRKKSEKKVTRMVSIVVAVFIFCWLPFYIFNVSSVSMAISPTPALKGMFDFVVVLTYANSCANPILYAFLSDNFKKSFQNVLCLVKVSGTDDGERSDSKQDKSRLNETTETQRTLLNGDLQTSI
T4 sequence (P35346 whole entry): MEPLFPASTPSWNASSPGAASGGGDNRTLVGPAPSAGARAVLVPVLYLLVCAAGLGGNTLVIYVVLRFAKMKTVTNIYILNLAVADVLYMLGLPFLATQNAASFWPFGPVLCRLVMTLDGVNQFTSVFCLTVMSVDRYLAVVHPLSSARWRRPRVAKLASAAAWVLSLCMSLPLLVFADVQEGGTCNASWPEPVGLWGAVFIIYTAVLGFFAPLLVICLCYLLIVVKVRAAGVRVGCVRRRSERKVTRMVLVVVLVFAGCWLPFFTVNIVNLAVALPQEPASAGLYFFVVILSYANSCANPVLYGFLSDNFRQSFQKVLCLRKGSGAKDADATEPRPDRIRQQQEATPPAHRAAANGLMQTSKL
T3 sequence (P31391 whole entry): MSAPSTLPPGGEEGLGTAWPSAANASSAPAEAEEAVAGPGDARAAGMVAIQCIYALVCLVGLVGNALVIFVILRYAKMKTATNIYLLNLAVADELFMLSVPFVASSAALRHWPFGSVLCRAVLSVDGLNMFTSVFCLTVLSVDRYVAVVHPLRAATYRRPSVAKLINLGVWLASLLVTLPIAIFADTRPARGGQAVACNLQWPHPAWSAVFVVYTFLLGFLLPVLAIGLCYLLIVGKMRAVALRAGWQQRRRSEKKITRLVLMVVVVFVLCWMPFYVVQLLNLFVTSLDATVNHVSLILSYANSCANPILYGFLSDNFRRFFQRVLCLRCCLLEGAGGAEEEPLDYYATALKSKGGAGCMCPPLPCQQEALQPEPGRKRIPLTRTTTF

Molecule	Kd [1]	Kd [2]	Kd [3]	Kd [4]	IC50 [5]	Kd [6]
C[C@@H](O)[C@H](NC(=O)[C@@H]1CSSC[C@H](NC(=O)[C@H](N)Cc2ccccc2)C(=O)N[C@@H](Cc2ccccc2)C(=O)N[C@H](Cc2c[nH]c3ccccc23)C(=O)N[C@@H](CCCCN)C(=O)N[C@@H]([C@@H](C)O)C(=O)N1C)C(N)=O [Example 7, DPhe-cyclo(Cys-Phe-DTrp-Lys-Thr-NMeCys)-Thr-NH2]	0.622 ± 0.172 µM	0.0562 ± 0.0264 µM	0.574 µM	0.0284 ± 0.0193 µM	–	–
C[C@@H](O)[C@H](NC(=O)[C@@H]1CSSC[C@H](NC(=O)[C@H](N)Cc2ccccc2)C(=O)N[C@@H](Cc2ccccc2)C(=O)N(C)[C@H](Cc2c[nH]c3ccccc23)C(=O)N[C@@H](CCCCN)C(=O)N[C@@H]([C@@H](C)O)C(=O)N1)C(N)=O [Example 4, DPhe-cyclo(Cys-Phe-NMeDTrp-Lys-Thr-Cys)-Thr-NH2]	1.2 µM	–	> 1 µM	0.00061 ± 0.00036 µM	–	–
C[C@H](N)C(=O)NCC(=O)N[C@H]1CSSC[C@@H](C(=O)O)NC(=O)[C@H](CO)NC(=O)[C@H]([C@@H](C)O)NC(=O)[C@H](Cc2ccccc2)NC(=O)[C@H]([C@@H](C)O)NC(=O)[C@H](CCCCN)NC(=O)[C@H](Cc2c[nH]c3ccccc23)NC(=O)[C@H](Cc2ccccc2)NC(=O)[C@H](Cc2ccccc2)NC(=O)[C@H](CC(N)=O)NC(=O)[C@H](CCCCN)NC1=O [SRIF-14]	–	–	–	–	0.00017 ± 5.4e-05 µM	–
SRIF-28	–	–	–	–	0.00023 ± 5.2e-05 µM	–
C[C@@H](O)[C@H](NC(=O)[C@@H]1CSSC[C@H](NC(=O)[C@H](N)Cc2ccccc2)C(=O)N[C@@H](Cc2ccccc2)C(=O)N[C@H](Cc2c[nH]c3ccccc23)C(=O)N[C@@H](CCCCN)C(=O)N(C)[C@@H]([C@@H](C)O)C(=O)N1)C(N)=O [Example 6, DPhe-cyclo(Cys-Phe-DTrp-Lys-NMeThr-Cys)-Thr-NH2]	> 1 µM	> 1 µM	> 1 µM	> 1 µM	–	> 1 µM
C[C@@H](O)[C@H](NC(=O)[C@@H]1CSSC[C@H](N(C)C(=O)[C@H](N)Cc2ccccc2)C(=O)N[C@@H](Cc2ccccc2)C(=O)N[C@H](Cc2c[nH]c3ccccc23)C(=O)N[C@@H](CCCCN)C(=O)N[C@@H]([C@@H](C)O)C(=O)N1)C(N)=O [Example 2, DPhe-cyclo(NMeCys-Phe-DTrp-Lys-Thr-Cys)-Thr-NH2]	0.378 ± 0.119 µM	0.00104 ± 0.00018 µM	> 1 µM	0.0237 µM	–	0.013 ± 0.0005 µM
C[C@@H](O)[C@H](NC(=O)[C@@H]1CSSC[C@H](NC(=O)[C@@H](N)Cc2ccc(O)cc2)C(=O)N[C@@H](Cc2ccccc2)C(=O)N[C@H](Cc2c[nH]c3ccccc23)C(=O)N[C@@H](CCCCN)C(=O)N(C)[C@@H]([C@@H](C)O)C(=O)N1)C(N)=O [Example 15, Tyr-cyclo(Cys-Phe-DTrp-Lys-NMeThr-Cys)-Thr-NH2] (H-YCF[dW]K[NMeT]CT-NH2; disulfide 2-7; N-terminus assumed)	1 µM	0.0613 ± 0.00695 µM	≥ 1 µM	0.09279 ± 0.0007 µM	–	0.44 ± 0.126 µM
